Measured values published in patent US9938267B2, “Heterocyclic inhibitors of glutaminase” (Calithera Biosciences, Inc., priority 2011, dated 2018).
One block for each molecule: values may come before it.

Assays:
[1] = test system: HCT116 colon carcinoma xenograft; assay: HCT116 colon carcinoma xenograft efficacy study; format: in vivo; details: female scid/bg mice, intraperitoneal, twice daily; FIG. 1
Experimental: Certain compounds were assayed for in vivo efficacy in xenograft models as follows.
Female scid/bg mice, approximately 6 weeks of age, were implanted subcutaneously on the right flank with 5×10^6 HCT116 cells per mouse in a volume of 100 uL of sterile PBS. When tumors reached a volume of 50-100 mm^3, mice were randomized to groups of n=10 to receive either vehicle or test compound delivered twice daily by intraperitoneal injection. Tumors were measured three times per week using Vernier calipers and tumor volume calculated using the formula: Volume=(Length×Width^2/2), where length and width are the longest perpendicular sides of the tumor. Dosing continued twice daily until control tumors reached a size of 2000 mm^3. Statistical comparisons were made using a 2-way ANOVA with Bonferroni post-test.

[2] = target: T1, recombinant form of Glutaminase 1 (GAC) (Homo sapiens, UniProt O94925); assay: Recombinant enzyme assay (GAC, GDH-coupled absorbance, no preincubation); format: biochemical; details: read-out: GAC Delta N2 IC50 no preinc
Experimental: (§1) Enzymatic reaction was started with the addition of 50 μL of enzyme solution (50 mM Tris-HCl pH 8.0, 0.2 mM EDTA, 150 mM K2HPO4, 0.1 mg/ml BSA, 1 mM DTT, 10 ppm antifoam, 4 units/ml GDH, 4 mM adenosine diphosphate, and 4 nM GAC) and read in a Molecular Devices M5 plate reader at 20° C. The plate reader was configured to read absorbance (λ=340 nm) in kinetic mode for 15 minutes. Data was recorded as milli-absorbance units per minute and slopes were compared to a control compound and a DMSO-only control on the same plate. Compounds with slopes less than the DMSO control were considered inhibitors and plate variability was assessed using the control compound.

[3] = target: T1, recombinant form of Glutaminase 1 (GAC); assay: Recombinant enzyme assay - time dependence (60 minutes enzyme/compound preincubation); format: biochemical; details: read-out: GAC Delta N2 IC50 60 min preinc
Experimental: as §1, with “The enzyme/compound mix was sealed with sealing foil (USA Scientific) and allowed to incubate, with mild agitation, for 60 minutes at 20° C. Enzymatic” for “Enzymatic”, “substrate” for “enzyme”, “DTT, 20 mM L-glutamine, 2 mM NAD^+, and” for “DTT,”, “antifoam)” for “antifoam, 4 units/ml GDH, 4 mM adenosine diphosphate, and 4 nM GAC)”

P493-6 (myc "on") cells = assay: Cell proliferation assay (72 hrs, Cell Titer Glo or Viacount FACS); format: cell-based; details: read-out: Cell prolif P493 72 h IC50; P493 cells, 72 h
Experimental: P493-6 (myc “on”) cells were maintained in growth media (RPMI-1640, 10% FBS, 2 mM glutamine, 100 units/ml Penicillin and 100 μg/ml streptomycin) at 37° C. with 5% CO2. For compound assay, P493-6 cells were plated in 96-well V-bottom plates on the day of compound addition in 50 μl of growth media at a cell density of 200,000 cells/ml (10,000 cells/well). Compounds were serially diluted in 100% DMSO at 200-times the final concentration. Compounds were diluted 100-fold into growth media and then 50 μl of this mixture was added to cell plates making the final concentration of DMSO 0.5%. Cells were incubated with compound for 72 hrs at 37° C. with 5% CO2 and analyzed for antiproliferative effects either by Cell Titer Glo (Promega) or FACS analysis using the Viacount (Millipore) kit on the Guava instrument.

Caco-2 cell monolayers = assay: Caco-2 permeability assay (bidirectional); format: in vitro ADME
Description: Caco-2 cells are commonly used in a confluent monolayer on a cell culture insert filter. When cultured in this format and under specific conditions, the cells become differentiated and polarized such that their phenotype, morphologically and functionally resembles the enterocytes lining the small intestine. The cell monolayer provides a physical and biochemical barrier to the passage of small molecules, and is widely used across the pharmaceutical industry as an in vitro model of the human small intestinal mucosa to predict the absorption of orally administered drugs (Hidalgo et al., Gastroenterology, 1989; Artursson, J. Pharm. Sci., 1990). The correlation between the in vitro apparent permeability (P ? app) across Caco-2 monolayers and the in vivo absorption is well established (Artursson et al., Biochem. Biophys. Res. Comm., 1991).
The present assay was used to determine the bidirectional permeability of the compounds of the invention through Caco-2 cell monolayers. Caco-2 cells were grown in confluent monolayers where the media of both the apical (A) and basolateral (B) sides were at pH 7.4. Compounds were dosed at 1 μM in the presence of 200 μM Lucifer Yellow, on the apical side (A→B) or the basolateral side (B→A) for assessment, in duplicate.

Compound: O=C(CCN1CCOCC1)OCC(C(=O)Nc1nnc(CCCCc2nnc(NC(=O)C(COC(=O)CCN3CCOCC3)c3ccccc3)s2)s1)c1ccccc1 (centres unmarked) [Compound 188, {[5,5′-(butane-1,4-diyl)-bis(1,3,4-thiadiazole-5,2-diyl)]-bis(azanediyl)}-bis(3-oxo-2-phenylpropane-3,1-diyl)-bis(3-morpholinopropanoate)]
tumor size [1]: reduced tumor size

Compound: NCc1cccc(CC(=O)Nc2nnc(CCCCc3nnc(NC(=O)Cc4cccc(CN)c4)s3)s2)c1 [Compound 325]
IC50 [2]: 660 nM
IC50 [3]: 170 nM
IC50 (P493-6 (myc "on") cells): 30 nM

Significant Efflux (Caco-2 cell monolayers): No
Compound: O=C(Cc1cccc(OC(F)(F)F)c1)Nc1ccc(CCCCc2nnc(NC(=O)Cc3cccc(F)c3)s2)nn1 [Compound 679]
